Measured values taken from patent US9174946B2, “Selective FAK inhibitors” (priority 2011, dated 2015).
Read-outs that look alike come from different tables or passages of the source.

Key:
[1] = molecular target: T1, Y397-FAK phosphorylation (Homo sapiens, UniProt Q05397); assay type: cell-based
T1 construct: endogenous in cells; host or cells: MDA-231-LNA cells
Procedure: The ability of compounds of the invention to inhibit FAK within cells can be assessed with an ELISA-type assay performed using a Meso Scale Discovery SECTOR Imager 6000 instrument. In this assay the ability of compounds of the invention to inhibit phosphorylation of Y397-FAK is determined.
P397Y-FAK Inhibition MSD Platform Cellular Biomarker Assay
96-well plates (cat #MA6000, Meso Scale Discovery) are coated with 30 μL/well of mouse monoclonal FAK antibody [63D5] (cat #ab72140, Abcam) pre-diluted in PBS to a concentration of 1 mg/L. The plates are sealed with adhesive film and incubated for 16 hours at 4° C. The antibody is then flicked out of the plates and 150 μL of 3% [w/v] Blocker A (cat #R93AA-1, Mesa Scale Discovery) is added. The plates are resealed with adhesive film and incubated at room temperature on a shaker set at medium speed for 2 hours. The plates are then washed three times with a solution containing 50 mM Tris-HCl pH 7.5, 0.15M NaCl and 0.02% Tween-20, before cell lysate addition described below.
Cells are split 1:2 into T150 cell culture flasks 2 days prior to compound treatment. […] The media/compounds are then flicked off and 55 μL/well of ice-cold complete lysis buffer is added. […] Plates are incubated on ice for 30 minutes, with 30 seconds high speed plate shaking every 5 minutes. 40 μL/well of cell lysate is transferred to the coated, blocked and washed 96-well microtitre plates described above. The 96-well plates are sealed with adhesive film and incubated for 16 hours at 4° C. The plates are then washed three times with a solution containing 50 mM Tris-HCl pH 7.5, 0.15M NaCl and 0.02% Tween-20 and tapped dry.
Plates are then washed three times with a solution containing 50 mM Tris-HCl pH 7.5, 0.15M NaCl and 0.02% Tween-20 and tapped dry.

[2] = tested on: HeyA8, SKOV3ip1, and HeyA8-MDR models; conditions: concomitant administration of TAE226 and docetaxel, all three models; cited from earlier work

T1 sequence (Q05397 whole entry): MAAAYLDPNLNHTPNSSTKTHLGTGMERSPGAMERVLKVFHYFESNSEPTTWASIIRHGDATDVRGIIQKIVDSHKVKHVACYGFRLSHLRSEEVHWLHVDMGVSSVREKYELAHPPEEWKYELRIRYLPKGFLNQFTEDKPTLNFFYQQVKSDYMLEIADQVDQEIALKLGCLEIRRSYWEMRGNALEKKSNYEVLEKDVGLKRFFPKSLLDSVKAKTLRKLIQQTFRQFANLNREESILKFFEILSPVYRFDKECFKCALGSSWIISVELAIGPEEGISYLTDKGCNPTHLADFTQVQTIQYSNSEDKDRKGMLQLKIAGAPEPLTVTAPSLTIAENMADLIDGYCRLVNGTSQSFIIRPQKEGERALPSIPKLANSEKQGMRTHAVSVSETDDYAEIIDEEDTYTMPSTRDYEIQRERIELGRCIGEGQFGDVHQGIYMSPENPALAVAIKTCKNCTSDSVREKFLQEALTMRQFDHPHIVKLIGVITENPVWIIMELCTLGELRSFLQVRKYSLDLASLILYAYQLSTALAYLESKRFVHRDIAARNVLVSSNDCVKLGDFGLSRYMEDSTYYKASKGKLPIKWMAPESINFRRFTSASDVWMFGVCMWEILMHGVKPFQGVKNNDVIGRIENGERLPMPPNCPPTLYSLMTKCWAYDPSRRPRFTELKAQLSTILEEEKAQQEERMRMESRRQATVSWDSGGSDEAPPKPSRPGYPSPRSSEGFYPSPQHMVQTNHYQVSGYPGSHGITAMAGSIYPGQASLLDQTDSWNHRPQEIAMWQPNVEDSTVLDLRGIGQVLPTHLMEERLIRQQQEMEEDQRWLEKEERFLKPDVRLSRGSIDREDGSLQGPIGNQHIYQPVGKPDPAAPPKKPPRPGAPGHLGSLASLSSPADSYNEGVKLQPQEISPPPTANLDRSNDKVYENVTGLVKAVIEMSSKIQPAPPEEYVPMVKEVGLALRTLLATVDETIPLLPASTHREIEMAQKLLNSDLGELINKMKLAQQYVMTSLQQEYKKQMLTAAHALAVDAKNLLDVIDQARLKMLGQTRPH

Compound | % response of control at 2 μM [1] [%] | other results
COc1cc(N2CCNCC2)ccc1Nc1ncc(C(F)(F)F)c(CCc2ccccc2CC(N)=O)n1 [Compound 1, 2-(2-(2-(2-((2-Methoxy-4-(piperazin-1-yl)phenyl)amino)-5-(trifluoromethyl)pyrimidin-4-yl)ethyl)phenyl)acetamide] |  | % response of control at 2 μM ([1]; MDA-231-LNA cells, relative to control compound at 2 μM): 122%
COc1cc(C2CCNCC2)ccc1Nc1ncc(C(F)(F)F)c(CCc2ccccc2CC(N)=O)n1 [Compound 2, 2-(2-(2-(2-((2-Methoxy-4-(piperidin-4-yl)phenyl)amino)-5-(trifluoromethyl)pyrimidin-4-yl)ethyl)phenyl)acetamide] | 91 | 
COc1cc(C2CCN(C)CC2)ccc1Nc1ncc(C(F)(F)F)c(CCc2ccccc2CC(N)=O)n1 [Compound 3, 2-(2-(2-(2-((2-Methoxy-4-(1-methylpiperidin-4-yl)phenyl)amino)-5-(trifluoromethyl)pyrimidin-4-yl)ethyl)phenyl)acetamide] | 102 | 
CCN1CCC(c2ccc(Nc3ncc(C(F)(F)F)c(CCc4ccccc4CC(N)=O)n3)c(OC)c2)CC1 [Compound 4, 2-(2-(2-(2-((4-(1-Ethylpiperidin-4-yl)-2-methoxyphenyl)amino)-5-(trifluoromethyl)pyrimidin-4-yl)ethyl)phenyl)acetamide] | 108 | 
COc1cc(C2CCN(C)CC2)ccc1Nc1ncc(C(F)(F)F)c(CCc2cccc(C(N)=O)c2)n1 [Compound 6, 3-(2-(2-((2-Methoxy-4-(1-methylpiperidin-4-yl)phenyl)amino)-5-(trifluoromethyl)pyrimidin-4-yl)ethyl)benzamide] | 80 | 
NC(=O)Cc1ccccc1CCc1nc(Nc2ccc(C3CCNCC3)cc2OC(F)(F)F)ncc1C(F)(F)F [Compound 10, 2-(2-(2-(2-((4-(Piperidin-4-yl)-2-(trifluoromethoxy)phenyl)amino)-5-(trifluoromethyl)pyrimidin-4yl)ethyl)phenyl)acetamide] | 116 | 
CN1CCC(c2ccc(Nc3ncc(C(F)(F)F)c(CCc4ccccc4CC(N)=O)n3)c(OC(F)(F)F)c2)CC1 [Compound 11, 2-(2-(2-(2-((4-(1-Methylpiperidin-4-yl)-2-(trifluoromethoxy)phenyl)amino)-5-(trifluoromethyl)pyrimidin-4-yl)ethyl)phenyl)acetamide] | 117 | 
CN1CCC(c2ccc(Nc3ncc(C(F)(F)F)c(CCc4ccccc4CC(N)=O)n3)c(F)c2)CC1 [Compound 13, 2-(2-(2-(2-((2-Fluoro-4-(1-methylpiperidin-4-yl)phenyl)amino)-5-(trifluoromethyl)pyrimidin-4-yl)ethyl)phenyl)acetamide] | 90 | 
CNC(=O)c1ccccc1Nc1nc(Nc2ccc(N3CCOCC3)cc2OC)ncc1Cl [TAE226] |  | reduction of tumour burden [2]: 85-97%
